Test results reported in patent US12459912B2 (priority 2020, dated 2025).

Columns and labels:
[1] = molecular target: 5-Hydroxytryptamine (Serotonin) Receptor 2A (5-HT2A) (Homo sapiens, UniProt P28223); experiment: 5-HT2A/Calcium Flux; format: cell-based; details: EC50 (μM)
[2] = molecular target: 5-Hydroxytryptamine (Serotonin) Receptor 2B (5-HT2B) (Homo sapiens, UniProt P41595); experiment: 5-HT2B/Calcium Flux; format: cell-based; details: EC50 (μM)
[3] = molecular target: T1, 5-Hydroxytryptamine (Serotonin) Receptor 3A (5-HT3A) (Homo sapiens, UniProt P46098); experiment: 5-HT3A/Ion Channel; format: cell-based; details: EC50 (μM)
T1 construct: expressed in transfected cells

[4] = molecular target: 5-Hydroxytryptamine (Serotonin) Receptor 1A (5-HT1A) (Homo sapiens, UniProt P08908); experiment: 5-HT1A/cAMP; format: cell-based
[5] = molecular target: ADRA1A (Adrenergic Receptor on α1A) (Homo sapiens, UniProt P35348); experiment: ADRA1A/Calcium Flux; format: cell-based; details: EC50 (μM)
[6] = molecular target: ADRA2A (Adrenergic Receptor on α2A) (Homo sapiens, UniProt P08913); experiment: ADRA2A/cAMP; format: cell-based
[7] = molecular target: ADRB2 (Adrenergic Receptor β2) (Homo sapiens, UniProt P07550); experiment: ADRB2/cAMP; format: cell-based; details: EC50 (μM)
[8] = molecular target: HRH1 (Histamine Receptor H1) (Homo sapiens, UniProt P35367); experiment: cell-based
[9] = molecular target: ADORA2A (Adenosine Receptor A2A) (Homo sapiens, UniProt P29274); experiment: ADORA2A/Calcium Flux; format: cell-based
[10] = molecular target: ADRB1 (Adrenergic Receptor β1) (Homo sapiens, UniProt P08588); experiment: ADRB1/cAMP; format: cell-based
[11] = molecular target: AVPR1A (Arginine Vasopressin Receptor 1A) (Homo sapiens, UniProt P37288); experiment: AVPR1A/Calcium Flux; format: cell-based
[12] = molecular target: CCKAR (Cholecystokinin Receptor A) (Homo sapiens, UniProt P32238); experiment: CCKAR/Calcium Flux; format: cell-based
[13] = molecular target: CHRM1 (Muscarinic acetylcholine Receptor M1) (Homo sapiens, UniProt P11229); experiment: cell-based
[14] = molecular target: CHRM2 (Muscarinic acetylcholine Receptor M2) (Homo sapiens, UniProt P08172); experiment: CHRM2/cAMP; format: cell-based
[15] = molecular target: DRD1 (Dopamine Receptor D1) (Homo sapiens, UniProt P21728); experiment: DRD1/cAMP; format: cell-based
[16] = molecular target: DRD2S (Dopamine Receptor D2) (Homo sapiens, UniProt P14416); experiment: DRD2S/cAMP; format: cell-based
[17] = molecular target: EDNRA (Endothelin Receptor Type A) (Homo sapiens, UniProt P25101); experiment: EDNRA/Calcium Flux; format: cell-based
[18] = molecular target: HRH2 (Histamine Receptor H2) (Homo sapiens, UniProt P25021); experiment: HRH2/cAMP; format: cell-based
[19] = molecular target: OPRK1 (Opioid Receptor Kappa 1) (Homo sapiens, UniProt P41145); experiment: OPRK1/cAMP; format: cell-based
[20] = molecular target: OPRM1 (Opioid Receptor Mu) (Homo sapiens, UniProt P35372); experiment: cell-based
[21] = molecular target: T2, CAV1.2 (Voltage-gated L-type calcium channel) (Homo sapiens, UniProt Q13936); experiment: CAV1.2/Ion Channel; format: cell-based
T2 construct: expressed in transfected cells

[22] = system: T3, GABAA (Gamma-aminobutyric acid Receptor A); format: cell-based
T3 construct: other: opener

KvLQT1/minK = molecular target: T4, KvLQT1/minK (Homo sapiens, UniProt P51787); experiment: KvLQT1/minK/Ion Channel; format: cell-based
T4 construct: expressed in transfected cells

[23] = molecular target: T5, NMDAR (1A/2B) (N-methyl-D-aspartate (NMDA) Glutamate Receptor 1A/2B) (Homo sapiens, UniProt Q05586+Q13224); experiment: NMDAR (1A/2B)/Ion Channel; format: cell-based
T5 construct: expressed in transfected cells

[24] = molecular target: T6, DAT (Dopamine transporter) (Homo sapiens, UniProt Q01959); experiment: DAT/Transporter (fluorescent substrate uptake); format: cell-based
T6 construct: expressed in transfected cells

[25] = molecular target: T7, NET (Norepinephrine transporter) (Homo sapiens, UniProt P23975); experiment: NET/Transporter (fluorescent substrate uptake); format: cell-based
T7 construct: expressed in transfected cells

[26] = molecular target: T8, SERT (Serotonin transporter) (Homo sapiens, UniProt P31645); experiment: cell-based
T8 construct: expressed in transfected cells

COX1 (Cyclooxygenase 1) = molecular target: T9, COX1 (Cyclooxygenase 1) (Homo sapiens, UniProt P23219); experiment: COX1/Enzymatic; format: biochemical
T9 construct: purchased BPS Bioscience

[27] = molecular target: T10, PDE3A (cGMP-inhibited cyclic nucleotide phosphodiesterase 3A) (Homo sapiens, UniProt Q14432); experiment: PDE3A/Enzymatic; format: biochemical
T10 construct: purchased Signal Chem

[28] = molecular target: T11, PDE4D2 (cAMP-specific 3′,5′-cyclic phospho-diesterase) (Homo sapiens, UniProt Q08499); experiment: PDE4D2/Enzymatic; format: biochemical
T11 construct: purchased Signal Chem

[29] = molecular target: T12, ROCK1 (Rho Associated Coiled-Coil Containing Protein Kinase 1) (Homo sapiens, UniProt Q13464); experiment: ROCK1/Binding (KINOMEscan)
T12 construct: made in house; host or cells: E. coli BL21-derived host (T7 phage) or HEK-293

[30] = molecular target: T13, INSR (Insulin Receptor (tyrosine kinase)) (Homo sapiens, UniProt P06213); experiment: INSR/Binding (KINOMEscan)
T13 construct: made in house; host or cells: E. coli BL21-derived host (T7 phage) or HEK-293

[31] = molecular target: GR (Nuclear Hormone Glucocorticoid Receptor) (Homo sapiens, UniProt P04150); experiment: GR/NHR Protein Interaction; format: cell-based
[32] = molecular target: T14, LCK (Lymphocyte Cell-Specific Protein-Tyrosine Kinase (Src family)) (Homo sapiens, UniProt P06239); experiment: LCK/Binding (KINOMEscan)
T14 construct: made in house; host or cells: E. coli BL21-derived host (T7 phage) or HEK-293

[33] = molecular target: NAV1.5 (tetrodotoxin-resistant voltage-gated sodium channel) (Homo sapiens, UniProt Q14524); experiment: cell-based

**Q.** CNC(C)Cc1ccc2ccsc2c1 (stereo not shown) [drawing 522] was tested. Which EC50 ([1]; agonist) did it give?
**A.** Its EC50 is 0.959 µM.

**Q.** And the EC50 ([1]; antagonist)?
**A.** Its EC50 is 1.72 µM.

**Q.** What about the EC50 ([2]; agonist) of the same molecule?
**A.** Its EC50 is greater than 10 µM.

**Q.** What about the EC50 ([2]; antagonist) of the same molecule?
**A.** Its EC50 is 0.072 µM.

**Q.** And the EC50 ([3]; blocker)?
**A.** The EC50 was 5.18 µM.

**Q.** What about the EC50 ([3]; opener) of the same molecule?
**A.** Its EC50 is greater than 10 µM.

**Q.** And the EC50 [4]?
**A.** The EC50 was greater than 10 µM.

**Q.** And the EC50 ([5]; agonist)?
**A.** Its EC50 is greater than 10 µM.

**Q.** What about the EC50 ([5]; antagonist) of the same molecule?
**A.** Its EC50 is 3.43 µM.

**Q.** What about the EC50 [6] of the same molecule?
**A.** The EC50 was greater than 10 µM.

**Q.** And the EC50 ([7]; agonist)?
**A.** Its EC50 is greater than 10 µM.

**Q.** What about the EC50 ([7]; antagonist) of the same molecule?
**A.** The EC50 was 5.79 µM.

**Q.** What about the EC50 [8] of the same molecule?
**A.** The EC50 was greater than 10 µM.

**Q.** And the EC50 [9]?
**A.** The EC50 was greater than 10 µM.

**Q.** What about the EC50 [10] of the same molecule?
**A.** The EC50 was greater than 10 µM.

**Q.** And the EC50 [11]?
**A.** The EC50 was greater than 10 µM.

**Q.** What about the EC50 [12] of the same molecule?
**A.** The EC50 was greater than 10 µM.

**Q.** And the EC50 [13]?
**A.** The EC50 was greater than 10 µM.

**Q.** And the EC50 [14]?
**A.** Its EC50 is greater than 10 µM.

**Q.** What about the EC50 [15] of the same molecule?
**A.** Its EC50 is greater than 10 µM.

**Q.** What about the EC50 [16] of the same molecule?
**A.** Its EC50 is greater than 10 µM.

**Q.** What about the EC50 [17] of the same molecule?
**A.** Its EC50 is greater than 10 µM.

**Q.** What about the EC50 [18] of the same molecule?
**A.** The EC50 was greater than 10 µM.

**Q.** What about the EC50 [19] of the same molecule?
**A.** Its EC50 is greater than 10 µM.

**Q.** And the EC50 [20]?
**A.** The EC50 was greater than 10 µM.

**Q.** What about the EC50 [21] of the same molecule?
**A.** The EC50 was greater than 10 µM.

**Q.** And the EC50 [22]?
**A.** The EC50 was greater than 10 µM.

**Q.** And the EC50 (KvLQT1/minK)?
**A.** Its EC50 is greater than 10 µM.

**Q.** And the EC50 [23]?
**A.** The EC50 was greater than 10 µM.

**Q.** What about the EC50 [24] of the same molecule?
**A.** The EC50 was 0.32 µM.

**Q.** What about the EC50 [25] of the same molecule?
**A.** Its EC50 is 0.684 µM.

**Q.** What about the EC50 [26] of the same molecule?
**A.** Its EC50 is greater than 10 µM.

**Q.** What about the EC50 (COX1 (Cyclooxygenase 1)) of the same molecule?
**A.** The EC50 was greater than 10 µM.

**Q.** And the EC50 [27]?
**A.** The EC50 was greater than 10 µM.

**Q.** And the EC50 [28]?
**A.** The EC50 was greater than 10 µM.

**Q.** What about the EC50 [29] of the same molecule?
**A.** The EC50 was greater than 10 µM.

**Q.** And the EC50 [30]?
**A.** Its EC50 is greater than 10 µM.

**Q.** And the EC50 [31]?
**A.** The EC50 was greater than 10 µM.

**Q.** And the EC50 [32]?
**A.** Its EC50 is greater than 10 µM.

**Q.** And the EC50 [33]?
**A.** Its EC50 is greater than 10 µM.
